In patent publication US20100041089A1, “IMPROVED METHOD FOR DETECTING CHEMICAL […]” (priority 2006, published 2010):

Tested on: yeast genes (expressed mRNA)
Test: DNA chip measurement of expressed mRNA of yeast genes after culture with a toxic chemical substance
Assay type: cell-based, Saccharomyces cerevisiae S288C
Conditions: for level of expressed mRNA in the presence of chemical substance / level in the absence of chemical substance: cultured two hours with the chemical substance; for The level of expressed mRNA in the presence of chemical substance/The level of expressed mRNA in the absence of chemical substance: cultured two hours with substance
In short: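 Yeast S288C, YPD 25° C; toxicant at log phase, 2 h, sublethal growth-inhibiting conc.; no-chemical control. Hot SDS/acetate RNA extraction, oligo-dT mRNA, Cy3/Cy5-dUTP RT. Whole-genome chip, 65° C >12 h. Readout: treated/control intensity ratio, ≥2 significant.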

Cl[C@H]1[C@H](Cl)[C@@H](Cl)[C@@H](Cl)[C@H](Cl)[C@H]1Cl [(7), γ-Hexachlorocyclohexane]
level of expressed mRNA in the presence of chemical substance / level in the absence of chemical substance (yeast gene YNL058C): 0.7
level of expressed mRNA in the presence of chemical substance / level in the absence of chemical substance (yeast gene YNL063W): 1.4
The level of expressed mRNA in the presence of chemical substance/The level of expressed mRNA in the absence of chemical substance (yeast gene YNL074C): 1.1
The level of expressed mRNA in the presence of chemical substance/The level of expressed mRNA in the absence of chemical substance (yeast gene YNL092W): 1.6
The level of expressed mRNA in the presence of chemical substance/The level of expressed mRNA in the absence of chemical substance (yeast gene YNL115C): 2.4
The level of expressed mRNA in the presence of chemical substance/The level of expressed mRNA in the absence of chemical substance (yeast gene YNL156C): 1.9
level of expressed mRNA in the presence of chemical substance / level in the absence of chemical substance (yeast gene YNL176C): 0.7
level of expressed mRNA in the presence of chemical substance / level in the absence of chemical substance (yeast gene YNL194C): 1.5
level of expressed mRNA in the presence of chemical substance / level in the absence of chemical substance (yeast gene YNL200C): 1.2
The level of expressed mRNA in the presence of chemical substance/The level of expressed mRNA in the absence of chemical substance (yeast gene YNL234W): 1.2
level of expressed mRNA in the presence of chemical substance / level in the absence of chemical substance (yeast gene YNL253W): 1.3
level of expressed mRNA in the presence of chemical substance / level in the absence of chemical substance (yeast gene YNL276C): 0.9
The level of expressed mRNA in the presence of chemical substance/The level of expressed mRNA in the absence of chemical substance (yeast gene YNL281W): 1.2
The level of expressed mRNA in the presence of chemical substance/The level of expressed mRNA in the absence of chemical substance (yeast gene YNL305C): 1.7
level of expressed mRNA in the presence of chemical substance / level in the absence of chemical substance (yeast gene YNR051C): 1.3
The level of expressed mRNA in the presence of chemical substance/The level of expressed mRNA in the absence of chemical substance (yeast gene YNR068C): 1.8
level of expressed mRNA in the presence of chemical substance / level in the absence of chemical substance (yeast gene YOL026C): 1.8
The level of expressed mRNA in the presence of chemical substance/The level of expressed mRNA in the absence of chemical substance (yeast gene YOL032W): 1.4
The level of expressed mRNA in the presence of chemical substance/The level of expressed mRNA in the absence of chemical substance (yeast gene YOL036W): 1.0
The level of expressed mRNA in the presence of chemical substance/The level of expressed mRNA in the absence of chemical substance (yeast gene YOL047C): 1.3
The level of expressed mRNA in the presence of chemical substance/The level of expressed mRNA in the absence of chemical substance (yeast gene YOL071W): 2.0
The level of expressed mRNA in the presence of chemical substance/The level of expressed mRNA in the absence of chemical substance (yeast gene YOL082W): 2.5
The level of expressed mRNA in the presence of chemical substance/The level of expressed mRNA in the absence of chemical substance (yeast gene YOL083W): 3.1
The level of expressed mRNA in the presence of chemical substance/The level of expressed mRNA in the absence of chemical substance (yeast gene YOL117W): 1.6
The level of expressed mRNA in the presence of chemical substance/The level of expressed mRNA in the absence of chemical substance (yeast gene YOL131W): 1.3
The level of expressed mRNA in the presence of chemical substance/The level of expressed mRNA in the absence of chemical substance (yeast gene YOL150C): 2.4
The level of expressed mRNA in the presence of chemical substance/The level of expressed mRNA in the absence of chemical substance (yeast gene YOL162W): 2.0
The level of expressed mRNA in the presence of chemical substance/The level of expressed mRNA in the absence of chemical substance (yeast gene YOR019W): 2.8
level of expressed mRNA in the presence of chemical substance / level in the absence of chemical substance (yeast gene YOR022C): 1.6
level of expressed mRNA in the presence of chemical substance / level in the absence of chemical substance (yeast gene YOR087W): 0.9
level of expressed mRNA in the presence of chemical substance / level in the absence of chemical substance (yeast gene YOR138C): 1.1
The level of expressed mRNA in the presence of chemical substance/The level of expressed mRNA in the absence of chemical substance (yeast gene YOR197W): 0.9
level of expressed mRNA in the presence of chemical substance / level in the absence of chemical substance (yeast gene YOR253W): 1.3
level of expressed mRNA in the presence of chemical substance / level in the absence of chemical substance (yeast gene YOR267C): 0.9
level of expressed mRNA in the presence of chemical substance / level in the absence of chemical substance (yeast gene YOR325W): 1.2
level of expressed mRNA in the presence of chemical substance / level in the absence of chemical substance (yeast gene YPL005W): 2.0
The level of expressed mRNA in the presence of chemical substance/The level of expressed mRNA in the absence of chemical substance (yeast gene YPL087W): 4.2
level of expressed mRNA in the presence of chemical substance / level in the absence of chemical substance (yeast gene YPL150W): 1.2
level of expressed mRNA in the presence of chemical substance / level in the absence of chemical substance (yeast gene YPL152W): 1.3
level of expressed mRNA in the presence of chemical substance / level in the absence of chemical substance (yeast gene YPL168W): 1.2
level of expressed mRNA in the presence of chemical substance / level in the absence of chemical substance (yeast gene YPL180W): 1.0
level of expressed mRNA in the presence of chemical substance / level in the absence of chemical substance (yeast gene YPL188W): 1.3
The level of expressed mRNA in the presence of chemical substance/The level of expressed mRNA in the absence of chemical substance (yeast gene YPL196W): 2.4
The level of expressed mRNA in the presence of chemical substance/The level of expressed mRNA in the absence of chemical substance (yeast gene YPL206C): 1.2
level of expressed mRNA in the presence of chemical substance / level in the absence of chemical substance (yeast gene YPL221W): 1.3
The level of expressed mRNA in the presence of chemical substance/The level of expressed mRNA in the absence of chemical substance (yeast gene YPL222W): 1.1
level of expressed mRNA in the presence of chemical substance / level in the absence of chemical substance (yeast gene YPL225W): 1.7
The level of expressed mRNA in the presence of chemical substance/The level of expressed mRNA in the absence of chemical substance (yeast gene YPR023C): 1.2
level of expressed mRNA in the presence of chemical substance / level in the absence of chemical substance (yeast gene YPR049C): 1.1
level of expressed mRNA in the presence of chemical substance / level in the absence of chemical substance (yeast gene YPR146C): 1.0
level of expressed mRNA in the presence of chemical substance / level in the absence of chemical substance (yeast gene YPR148C): 1.6
The level of expressed mRNA in the presence of chemical substance/The level of expressed mRNA in the absence of chemical substance (yeast gene YPR151C): 4.4
level of expressed mRNA in the presence of chemical substance / level in the absence of chemical substance (yeast gene YPR172W): 1.2
